pIC50: −log10 of the molar value. Each block holds one molecule with its values, some of them ahead of it.
Tests used:
[1] = system: RS4;11 cells (acute lymphoblastic leukemia cells); assay: RS4;11 cell proliferation, CellTilter-Glo luminescence cell viability assay; assay type: cell-based; conditions: Homo sapiens, RS4-11; CTG readout after 48 hours
Summary of the method: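 RS4;11 cells plated overnight were exposed for 48 h at 37 °C, 5% CO2 to an 8-point, 4-fold compound dilution series; the vehicle control contained 0.2% DMSO. Viability was read by CellTiter-Glo luminescence. Percent inhibition was referenced to no-cell and DMSO controls, and IC50 came from a four-parameter sigmoidal fit.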

[2] = system: relapsed/refractory CLL, MCL, MM; conditions: clinical; cited from earlier work
[3] = system: patients with relapsed or refractory lymphoid malignancies; conditions: cited from earlier work
[4] = system: chronic lymphocytic leukemia (CLL) patients; conditions: clinical; cited from earlier work

pIC50 [1]: 8.26
SMILES: CC1(C)CCC(CN2CCN(c3ccc(C(=O)NS(=O)(=O)c4ccc(NCC5CCOCC5)c([N+](=O)[O-])c4)c(Oc4cnc5[nH]ccc5c4)c3)CC2)=C(c2ccc(Cl)cc2)C1 [Venetoclax, reference compound]
toxic side effects [2]: toxic side effects such as leukopenia and thrombocytopenia, anemia, diarrhea, dizziness, fatigue, susceptibility to infection

SMILES: CC1(C)CCC(c2ccc(Cl)cc2)=C(CN2CCN(c3ccc(C(=O)NS(=O)(=O)c4ccc(N[C@H](CCN5CCOCC5)CSc5ccccc5)c(S(=O)(=O)C(F)(F)F)c4)cc3)CC2)C1 [Navitoclax]
response ([3]; Phase I dose escalation): 50%
targeted toxicity ([3]; thrombocytopenia and severe anemia): very strong targeted toxicity related to BCL-XL

SMILES: COC1=CC(c2cc3ccccc3[nH]2)=N/C1=C\c1[nH]c(C)cc1C [Obatoclax]
neurotoxicity [4]: strong neurotoxicity

From patent US20230271959A1, “HETEROCYCLIC COMPOUND AS BCL-2 INHIBITOR” (Beijing Innocare Pharma Tech Co., Ltd., priority 2020, published 2023)
